Results: patent publication US9624167B2, “N-(4-hydroxy-4-methyl-cyclohexyl)-4-phenyl-benzenesulfonamides and N-(4-hydroxy-4-methyl-cyclohexyl)-4-(2-pyridyl)benzenesulfonamides and their therapeutic use” (PIMCO 2664 LIMITED, priority 2013, dated 2017)

Assays:
J774 macrophages = assay: Resazurin Macrophage J774 Viability Assay; type: cell-based; conditions: Mus musculus, 6 point concentration range 10 μM to 10 nM, n = 3 replicates, mean of 2 independent experiments, 72 hour incubation, read-out: IC50 (1)
Protocol: Potency was assessed using a viability assay based on the survival of the J774 macrophage cell line. Macrophages are closely related to osteoclasts and have been used previously as a model system for osteoclast survival (see, e.g., Luckman et al., 1998, “Heterocycle-containing bisphosphonates cause apoptosis and inhibit bone resorption by preventing protein prenylation: evidence from structure-activity relationships in J774 macrophages,” J. Bone Miner. Res., Vol. 13, pp. 1668-1678). The model is indicative both of effects on bone protection in diseases such as osteoporosis, osteoarthritis and rheumatoid arthritis, and of effects on inflammation since, like osteoclasts, J774 macrophages are dependent for survival on continued NFκB activation.
In vitro potency of test compounds was determined by incubation with J774 macrophages and subsequent determination of cell viability using resazurin.
Resazurin is a redox dye commonly used as an indicator of viability in cultured cells (see, e.g., Anoopkumar-Dukie, 2005, British Journal of Radiology, Vol. 78, pp. 945-947). It is non-toxic to cells and stable in culture medium, allowing continuous measurement of cell proliferation in vitro as either a kinetic or endpoint assay. The assay is based on the ability of viable, metabolically-active cells to reduce resazurin (which is blue and non-fluorescent) to resorufin and dihydroresorufin (which are red and fluorescent) using electrons from reducing species, such as nicotinamide adenine dinucleotide (NADPH) and flavin adenine dinucleotide (FADH). This transformation, from oxidised form to reduced form, can be measured either colorimetrically or fluorometrically. Insults that impair cell viability and proliferation also affects the capacity of cells to reduce resazurin, and the rate of dye reduction is directly proportional to the number of viable cells present.
For fluorescence measurements, 530-560 nm excitation and 590 nm emission wavelengths are typically used. For colorimetric measurements, absorbance at 570 nm (reduced form) and 600 nm (oxidised form) is typically measured. A simple calculation is performed to determine the relative quantities of the two species: a high ratio of resorufin (the reduced form) to resazurin (the oxidised form) is an indicator that cells are proliferating and viable. A low ratio indicates cells that are quiescent or non-viable.
J774 cells were plated at 10^4 cells per well in 100 μL αMEM (α Modified Eagle Medium) in 96-well plates and allowed to adhere overnight. The following day, test compounds were prepared as 100 mM solutions in DMSO. These stock solutions were diluted in DMSO and then diluted 1000× in culture medium (αMEM) before being added directly to the wells so as to give the desired final compound concentration. After a 72 hour incubation at 37° C./5% CO2, resazurin (Alamar Blue, Biosource International) was added to each well (1:10 v/v, 10 μL). The plate was then incubated at 37° C. for 3 hours and fluorescence was measured at 590 nm, with a 25 nm bandwidth.
The average results for each test compound were expressed as a percent (%) of the average control value reflecting cell viability. The average values across the concentrations tested were then plotted and the IC50 for was calculated by fitting the data to a 4-parameter IC50 equation using software from Grafit (Erithacus Software). Each experiment was repeated twice and the data are presented as the mean IC50 from both experiments.

hERG = biological target: T1, hERG (Homo sapiens, UniProt Q12809); assay: hERG Ion Channel Assay (Q-patch, hERG-CHO cells); type: cell-based; conditions: human, CHO cells stably transfected with hERG (hERG-CHO), pH 7.4, 30 μM
T1 construct: expressed in transfected cells; host or cells: Chinese Hamster Ovary cells (hERG-CHO), stably transfected
T1 sequence (Q12809 whole entry): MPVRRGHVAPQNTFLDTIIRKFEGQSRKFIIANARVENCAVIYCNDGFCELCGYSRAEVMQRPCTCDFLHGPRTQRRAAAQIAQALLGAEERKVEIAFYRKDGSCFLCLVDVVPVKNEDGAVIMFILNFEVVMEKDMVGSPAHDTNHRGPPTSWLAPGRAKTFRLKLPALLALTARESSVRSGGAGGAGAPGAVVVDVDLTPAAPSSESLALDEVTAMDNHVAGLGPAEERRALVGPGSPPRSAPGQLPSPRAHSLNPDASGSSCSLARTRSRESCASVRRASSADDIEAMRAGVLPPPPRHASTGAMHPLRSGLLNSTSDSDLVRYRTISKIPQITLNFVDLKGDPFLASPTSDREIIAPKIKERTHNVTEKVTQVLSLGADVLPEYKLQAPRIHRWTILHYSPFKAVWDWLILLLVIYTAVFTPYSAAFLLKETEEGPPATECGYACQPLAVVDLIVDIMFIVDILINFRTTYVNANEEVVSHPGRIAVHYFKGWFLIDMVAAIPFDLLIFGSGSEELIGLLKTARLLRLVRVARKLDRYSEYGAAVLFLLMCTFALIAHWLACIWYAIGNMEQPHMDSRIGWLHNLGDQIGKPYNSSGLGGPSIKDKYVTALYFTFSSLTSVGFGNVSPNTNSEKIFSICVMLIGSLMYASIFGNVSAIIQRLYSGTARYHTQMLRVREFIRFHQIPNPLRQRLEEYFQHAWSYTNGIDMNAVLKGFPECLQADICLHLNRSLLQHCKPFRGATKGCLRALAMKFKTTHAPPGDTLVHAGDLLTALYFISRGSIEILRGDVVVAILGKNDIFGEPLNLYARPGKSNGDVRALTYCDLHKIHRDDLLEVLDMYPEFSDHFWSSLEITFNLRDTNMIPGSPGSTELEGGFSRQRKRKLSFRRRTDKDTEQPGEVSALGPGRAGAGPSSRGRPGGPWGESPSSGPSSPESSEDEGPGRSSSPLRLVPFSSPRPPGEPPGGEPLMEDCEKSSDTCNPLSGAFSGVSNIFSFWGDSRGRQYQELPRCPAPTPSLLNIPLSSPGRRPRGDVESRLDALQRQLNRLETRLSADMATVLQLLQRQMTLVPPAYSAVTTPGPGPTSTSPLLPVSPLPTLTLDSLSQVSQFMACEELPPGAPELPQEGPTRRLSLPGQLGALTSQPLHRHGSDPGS
Protocol: The activity of the compounds against the hERG ion channel was tested. The assay was conducted using the automated path-clamp, Q-patch method using stably transfected Chinese Hamster Ovary cells (hERG-CHO). hERG-CHO cells were cultured in F-12 Kaighn's Nutrient Mixture medium (Invitrogen)+10% FBS at 37° C. for 1-3 days. Cells were kept at 30° C. for 24 to 48 hours prior to patch clamping in order to increase the hERG current amplitude. Subsequently, the cells were harvested by trypsinisation, and kept in Serum Free Medium (SFM) in the Q-patch cell preparation state for up to 6 hours at room temperature before being washed and re-suspended in extracellular solution and applied to the patch clamp sites for data recording.
Patch-clamp voltage protocol: After whole cell configuration was achieved, the cell was held at −80 mV. A 50 millisecond pulse to −40 mV was delivered to measure the leaking current, which was subtracted from the tail current on-line. Then the cell was depolarized to +20 mV for 2 seconds, followed by a one second pulse to −40 mV to reveal hERG tail current. This paradigm was delivered once every 5 seconds to monitor the current amplitude.
Extracellular solution: 137 mM NaCl, 4 mM KCl, 1.8 mM CaCl2, 1 mM MgCl2, 10 mM D(+)-glucose, 10 mM HePES buffer (pH adjusted to 7.4 with NaOH).
After the whole cell configuration was achieved, the extracellular solution (control) was applied first and the cell was stabilized for 2 minutes in extracellular solution. The test compound was then applied from low concentrations to high concentrations cumulatively. The cell was incubated with each test concentration for 5 minutes. During each incubation, the cell was repetitively stimulated using the voltage protocol described above, and the tail current amplitude was continuously monitored.
• (1) Peak tail current >100 pA in control. • (2) Initial run-down <30% and the run-down stops before first application of the test compound. • (3) Leak currents <50% of the control peak tail currents at any time. • (4) rs<20 MΩ throughout the experiment.
The degree of inhibition (%) was obtained by measuring the tail current amplitude, induced by a one second test pulse to −40 mV after a two second pulse to +20 mV, before and after incubation with the test compound. The difference in current was normalized to control and multiplied by 100 in order to obtain the percent inhibition.
Concentration (log) response curves were fitted to a logistic equation (three parameters assuming complete block of the current at very high test compound concentrations) to generate estimates of the 50% inhibitory concentration (IC50). The concentration-response relationship of each compound was constructed from the percentage reductions of current amplitude by sequential concentrations.

## C[C@]1(O)CC[C@H](NS(=O)(=O)c2ccc(-c3ncc(F)cc3F)c(F)c2)CC1 [HMC-N-01-A, 4-(3,5-Difluoropyridin-2-yl)-3-fluoro-N-((1r,4r)-4-hydroxy-4-methylcyclohexyl)benzenesulfonamide]
J774 macrophages
  IC50: 130 nM
hERG; hERG tail current
  inhibition at 5 min, 30 µM: 2%

## C[C@]1(O)CC[C@H](NS(=O)(=O)c2ccc(-c3c(F)cc(F)cc3F)cc2)CC1 [HMC-C-03-A, 2′,4′,6′-Trifluoro-N-((1r,4r)-4-hydroxy-4-methylcyclohexyl)biphenyl-4-sulfonamide]
J774 macrophages
  IC50: 140 nM
hERG; hERG tail current
  inhibition at 5 min, 30 µM: 45%

## C[C@]1(O)CC[C@@H](NS(=O)(=O)c2ccc(-c3ncc(F)cc3F)c(F)c2)CC1 [HMC-N-01-B, 4-(3,5-Difluoropyridin-2-yl)-3-fluoro-N-((1s,4s)-4-hydroxy-4-methylcyclohexyl)benzenesulfonamide]
hERG; hERG tail current
  inhibition at 5 min, 30 µM: 27%

## C[C@]1(O)CC[C@H](NS(=O)(=O)c2ccc(-c3ncc(Cl)cc3Cl)c(F)c2)CC1 [HMC-N-04-A, 4-(3,5-Dichloropyridin-2-yl)-3-fluoro-N-((1r,4r)-4-hydroxy-4-methylcyclohexyl)benzenesulfonamide]
J774 macrophages
  IC50: 180 nM
hERG; hERG tail current
  inhibition at 5 min, 30 µM: 26%

## C[C@]1(O)CC[C@H](NS(=O)(=O)c2ccc(-c3ccc(F)cc3F)cc2)CC1 [ABD900, reference compound]
J774 macrophages
  IC50: 560 nM
hERG; hERG tail current
  inhibition at 5 min, 30 µM: 51%

## Cc1cc(S(=O)(=O)NC2CCC(C)(O)CC2)ccc1-c1ccc(F)cc1F (single isomer, unassigned) [REF001, reference compound]
J774 macrophages
  IC50: 120 nM
hERG; hERG tail current
  inhibition at 5 min, 30 µM: 60%

## C[C@]1(O)CC[C@H](NS(=O)(=O)c2ccc(-c3ncc(F)cc3F)cc2)CC1 [HMC-N-02-A, 4-(3,5-Difluoropyridin-2-yl)-N-((1r,4r)-4-hydroxy-4-methylcyclohexyl)benzenesulfonamide]
J774 macrophages
  IC50: 180 nM
hERG; hERG tail current
  inhibition at 5 min, 30 µM: 31%

## C[C@]1(O)CC[C@@H](NS(=O)(=O)c2ccc(-c3ccc(F)cc3F)cc2)CC1 [ABD899, reference compound]
J774 macrophages
  IC50: 80 nM
hERG; a lab-scale batch was tested
  inhibition at 5 min, 30 µM: 100%
hERG; a mid-scale batch was tested
  inhibition at 5 min, 30 µM: 53%

## C[C@]1(O)CC[C@@H](NS(=O)(=O)c2ccc(-c3ncc(F)cc3F)cc2)CC1 [HMC-N-02-B, 4-(3,5-Difluoropyridin-2-yl)-N-((1s,4s)-4-hydroxy-4-methylcyclohexyl)benzenesulfonamide]
hERG; hERG tail current
  inhibition at 5 min, 30 µM: 23%

## C[C@]1(O)CC[C@H](NS(=O)(=O)c2ccc(-c3ccc(F)cc3C(F)(F)F)cc2)CC1 [HMC-C-02-A, 4′-Fluoro-N-((1r,4r)-4-hydroxy-4-methylcyclohexyl)-2′-(trifluoromethyl)biphenyl-4-sulfonamide]
J774 macrophages
  IC50: 260 nM
hERG; hERG tail current
  inhibition at 5 min, 30 µM: 57%

## C[C@]1(O)CC[C@@H](NS(=O)(=O)c2ccc(-c3ccc(F)cc3C(F)(F)F)cc2)CC1 [HMC-C-02-B, 4′-Fluoro-N-((1s,4s)-4-hydroxy-4-methylcyclohexyl)-2′-(trifluoromethyl)-[1,1′-biphenyl]-4-sulfonamide]
hERG; hERG tail current
  inhibition at 5 min, 30 µM: 94%

## C[C@]1(O)CC[C@H](NS(=O)(=O)c2ccc(-c3ccc(Cl)cc3C#N)cc2)CC1 [HMC-C-01-A, 4′-Chloro-2′-cyano-N-((1r,4r)-4-hydroxy-4-methylcyclohexyl)biphenyl-4-sulfonamide]
J774 macrophages
  IC50: 130 nM
hERG; hERG tail current
  inhibition at 5 min, 30 µM: 79%

## C[C@]1(O)CC[C@@H](NS(=O)(=O)c2ccc(-c3ccc(Cl)cc3C#N)cc2)CC1 [HMC-C-01-B, 4′-Chloro-2′-cyano-N-((1s,4s)-4-hydroxy-4-methylcyclohexyl)-[1,1′-biphenyl]-4-sulfonamide]
hERG; hERG tail current
  inhibition at 5 min, 30 µM: 74%

## C[C@]1(O)CC[C@@H](NS(=O)(=O)c2ccc(-c3ncc(Cl)cc3Cl)cc2)CC1 [HMC-N-03-B, 4-(3,5-Dichloropyridin-2-yl)-N-((1s,4s)-4-hydroxy-4-methylcyclohexyl)benzenesulfonamide]
hERG; hERG tail current
  inhibition at 5 min, 30 µM: 47%

## C[C@]1(O)CC[C@H](NS(=O)(=O)c2ccc(-c3ccc(F)cc3F)c(F)c2)CC1 [HMC-C-04-A, 2,2′,4′-Trifluoro-N-((1r,4r)-4-hydroxy-4-methylcyclohexyl)-[1,1′-biphenyl]-4-sulfonamide]
hERG; hERG tail current
  inhibition at 5 min, 30 µM: 69%

## O=S(=O)(N[C@H]1CC[C@H](O)CC1)c1ccc(-c2ncc(Cl)cc2Cl)cc1 [ABD836, reference compound]
J774 macrophages
  IC50: 280 nM
hERG; hERG tail current
  inhibition at 5 min, 30 µM: 50%

## C[C@]1(O)CC[C@@H](NS(=O)(=O)c2ccc(-c3c(F)cc(F)cc3F)cc2)CC1 [HMC-C-03-B, 2′,4′,6′-Trifluoro-N-((1s,4s)-4-hydroxy-4-methylcyclohexyl)-[1,1′-biphenyl]-4-sulfonamide]
hERG; hERG tail current
  inhibition at 5 min, 30 µM: 36%

## C[C@]1(O)CC[C@H](NS(=O)(=O)c2ccc(-c3ncc(Cl)cc3Cl)cc2)CC1 [HMC-N-03-A, 4-(3,5-Dichloropyridin-2-yl)-N-((1r,4r)-4-hydroxy-4-methylcyclohexyl)benzenesulfonamide]
J774 macrophages
  IC50: 170 nM
hERG; hERG tail current
  inhibition at 5 min, 30 µM: 13%

## Cc1cc(S(=O)(=O)N[C@H]2CC[C@H](O)CC2)ccc1-c1ccc(F)cc1F [ABD735]
J774 macrophages
  IC50: 100 nM
hERG; hERG tail current
  inhibition at 5 min, 30 µM: 62.5%
